# From PubChem BioAssay (NCI)
#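 These data come from cells grown in 96-well plates and exposed to compound for 48 hours at five concentrations. At the TGI there is no net growth.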
# Columns and labels:
# Assay in all cases: NCI tumour cell line growth inhibition, 48 h
# A498 renal = tested on: A498 renal
# A549 NSCLC = tested on: A549 NSCLC
# CAKI-1 renal = tested on: CAKI-1 renal
# CCRF-CEM leukemia = tested on: CCRF-CEM leukemia
# COLO 205 colon = tested on: COLO 205 colon
# DLD-1 colon = tested on: DLD-1 colon
# DMS 114 small cell lung = tested on: DMS 114 small cell lung
# DMS 273 small cell lung = tested on: DMS 273 small cell lung
# EKVX NSCLC = tested on: EKVX NSCLC
# HCC-2998 colon = tested on: HCC-2998 colon
# HCT-116 colon = tested on: HCT-116 colon
# HCT-15 colon = tested on: HCT-15 colon
# HL-60(TB) leukemia = tested on: HL-60(TB) leukemia
# HOP-18 NSCLC = tested on: HOP-18 NSCLC
# HOP-62 NSCLC = tested on: HOP-62 NSCLC
# HOP-92 NSCLC = tested on: HOP-92 NSCLC
# HT29 colon = tested on: HT29 colon
# IGROV1 ovarian = tested on: IGROV1 ovarian
# K-562 leukemia = tested on: K-562 leukemia
# KM12 colon = tested on: KM12 colon
# KM20L2 colon = tested on: KM20L2 colon
# LOX IMVI melanoma = tested on: LOX IMVI melanoma
# M19-MEL melanoma = tested on: M19-MEL melanoma
# MALME-3M melanoma = tested on: MALME-3M melanoma
# MCF7 breast = tested on: MCF7 breast
# MOLT-4 leukemia = tested on: MOLT-4 leukemia
# NCI-H226 lung = tested on: NCI-H226 lung
# NCI-H23 lung = tested on: NCI-H23 lung
# NCI-H460 lung = tested on: NCI-H460 lung
# NCI-H522 lung = tested on: NCI-H522 lung
# NCI/ADR-RES ovarian = tested on: NCI/ADR-RES ovarian
# OVCAR-3 ovarian = tested on: OVCAR-3 ovarian
# OVCAR-4 ovarian = tested on: OVCAR-4 ovarian
# OVCAR-5 ovarian = tested on: OVCAR-5 ovarian
# OVCAR-8 ovarian = tested on: OVCAR-8 ovarian
# P388 leukemia = tested on: P388 leukemia
# P388/ADR leukemia = tested on: P388/ADR leukemia
# RPMI-8226 leukemia = tested on: RPMI-8226 leukemia
# RXF 393 renal = tested on: RXF 393 renal
# SF-268 CNS = tested on: SF-268 CNS
# SF-295 CNS = tested on: SF-295 CNS
# SF-539 CNS = tested on: SF-539 CNS
# SK-MEL-2 melanoma = tested on: SK-MEL-2 melanoma
# SK-MEL-28 melanoma = tested on: SK-MEL-28 melanoma
# SK-MEL-5 melanoma = tested on: SK-MEL-5 melanoma
# SK-OV-3 ovarian = tested on: SK-OV-3 ovarian
# SN12C renal = tested on: SN12C renal
# SN12K1 renal = tested on: SN12K1 renal
# SNB-19 CNS = tested on: SNB-19 CNS
# SNB-75 CNS = tested on: SNB-75 CNS
# SNB-78 CNS = tested on: SNB-78 CNS
# SW-620 colon = tested on: SW-620 colon
# U251 CNS = tested on: U251 CNS
# UACC-257 melanoma = tested on: UACC-257 melanoma
# UACC-62 melanoma = tested on: UACC-62 melanoma
# UO-31 renal = tested on: UO-31 renal
# XF 498 CNS = tested on: XF 498 CNS
structure (smiles),measurement,setting,value
Cc1c(C2=NN=C(N=Nc3c(O)cccc3O)/C2=C/c2ccccc2)c(=O)n(-c2ccccc2)n1C,TGI,A498 renal,> 100 µM
same,TGI,A549 NSCLC,> 100 µM
same,TGI,CAKI-1 renal,> 100 µM
same,TGI,CCRF-CEM leukemia,> 100 µM
same,TGI,COLO 205 colon,> 100 µM
same,TGI,DLD-1 colon,> 100 µM
same,TGI,DMS 114 small cell lung,> 100 µM
same,TGI,DMS 273 small cell lung,> 100 µM
same,TGI,EKVX NSCLC,> 100 µM
same,TGI,HCC-2998 colon,> 100 µM
same,TGI,HCT-116 colon,> 100 µM
same,TGI,HCT-15 colon,> 100 µM
same,TGI,HL-60(TB) leukemia,> 100 µM
same,TGI,HOP-18 NSCLC,> 100 µM
same,TGI,HOP-62 NSCLC,> 100 µM
same,TGI,HOP-92 NSCLC,> 100 µM
same,TGI,HT29 colon,> 100 µM
same,TGI,IGROV1 ovarian,> 100 µM
same,TGI,K-562 leukemia,> 100 µM
same,TGI,KM12 colon,> 100 µM
same,TGI,KM20L2 colon,> 100 µM
same,TGI,LOX IMVI melanoma,> 100 µM
same,TGI,M19-MEL melanoma,> 100 µM
same,TGI,MALME-3M melanoma,> 100 µM
same,TGI,MCF7 breast,> 100 µM
same,TGI,MOLT-4 leukemia,> 100 µM
same,TGI,NCI-H226 lung,> 100 µM
same,TGI,NCI-H23 lung,> 100 µM
same,TGI,NCI-H460 lung,> 100 µM
same,TGI,NCI-H522 lung,> 100 µM
same,TGI,NCI/ADR-RES ovarian,> 100 µM
same,TGI,OVCAR-3 ovarian,> 100 µM
same,TGI,OVCAR-4 ovarian,> 100 µM
same,TGI,OVCAR-5 ovarian,> 100 µM
same,TGI,OVCAR-8 ovarian,> 100 µM
same,TGI,P388 leukemia,> 100 µM
same,TGI,P388/ADR leukemia,> 100 µM
same,TGI,RPMI-8226 leukemia,> 100 µM
same,TGI,RXF 393 renal,> 100 µM
same,TGI,SF-268 CNS,> 100 µM
same,TGI,SF-295 CNS,> 100 µM
same,TGI,SF-539 CNS,> 100 µM
same,TGI,SK-MEL-2 melanoma,> 100 µM
same,TGI,SK-MEL-28 melanoma,> 100 µM
same,TGI,SK-MEL-5 melanoma,> 100 µM
same,TGI,SK-OV-3 ovarian,> 100 µM
same,TGI,SN12C renal,> 100 µM
same,TGI,SN12K1 renal,> 100 µM
same,TGI,SNB-19 CNS,> 100 µM
same,TGI,SNB-75 CNS,> 100 µM
same,TGI,SNB-78 CNS,> 100 µM
same,TGI,SW-620 colon,> 100 µM
same,TGI,U251 CNS,> 100 µM
same,TGI,UACC-257 melanoma,> 100 µM
same,TGI,UACC-62 melanoma,> 100 µM
same,TGI,UO-31 renal,> 100 µM
same,TGI,XF 498 CNS,> 100 µM
CC(C)=CCC/C(C)=C/CCC1(C)C=Cc2c(c3ccccc3oc2=O)O1 (centres undefined),TGI,A498 renal,27.1 µM
same,TGI,A549 NSCLC,33.2 µM
same,TGI,CAKI-1 renal,33 µM
same,TGI,CCRF-CEM leukemia,> 74 µM
same,TGI,COLO 205 colon,35.5 µM
same,TGI,DLD-1 colon,28.5 µM
same,TGI,DMS 114 small cell lung,29.8 µM
same,TGI,DMS 273 small cell lung,32 µM
same,TGI,EKVX NSCLC,33.9 µM
same,TGI,HCC-2998 colon,31.8 µM
same,TGI,HCT-116 colon,28 µM
same,TGI,HCT-15 colon,30.2 µM
same,TGI,HL-60(TB) leukemia,> 75.8 µM
same,TGI,HOP-18 NSCLC,32.6 µM
same,TGI,HOP-62 NSCLC,17.8 µM
same,TGI,HOP-92 NSCLC,25 µM
same,TGI,HT29 colon,33.7 µM
same,TGI,IGROV1 ovarian,30.8 µM
same,TGI,K-562 leukemia,> 89 µM
same,TGI,KM12 colon,33.2 µM
same,TGI,KM20L2 colon,34 µM
same,TGI,LOX IMVI melanoma,32.4 µM
same,TGI,M19-MEL melanoma,31.4 µM
same,TGI,MALME-3M melanoma,43.7 µM
same,TGI,MCF7 breast,30.5 µM
same,TGI,MOLT-4 leukemia,> 72.7 µM
same,TGI,NCI-H226 lung,30 µM
same,TGI,NCI-H23 lung,28.9 µM
same,TGI,NCI-H460 lung,30.1 µM
same,TGI,NCI-H522 lung,29.3 µM
same,TGI,NCI/ADR-RES ovarian,31.1 µM
same,TGI,OVCAR-3 ovarian,32.7 µM
same,TGI,OVCAR-4 ovarian,28.4 µM
same,TGI,OVCAR-5 ovarian,32.6 µM
same,TGI,OVCAR-8 ovarian,30.3 µM
same,TGI,P388 leukemia,52.6 µM
same,TGI,P388/ADR leukemia,> 62.6 µM
same,TGI,RPMI-8226 leukemia,63.8 µM
same,TGI,RXF 393 renal,27.8 µM
same,TGI,SF-268 CNS,40.8 µM
same,TGI,SF-295 CNS,33.9 µM
same,TGI,SF-539 CNS,30.5 µM
same,TGI,SK-MEL-2 melanoma,31.4 µM
same,TGI,SK-MEL-28 melanoma,29.9 µM
same,TGI,SK-MEL-5 melanoma,28.1 µM
same,TGI,SK-OV-3 ovarian,50.8 µM
same,TGI,SN12C renal,32 µM
same,TGI,SN12K1 renal,30.7 µM
same,TGI,SNB-19 CNS,37.7 µM
same,TGI,SNB-75 CNS,19.8 µM
same,TGI,SNB-78 CNS,> 92.8 µM
same,TGI,SW-620 colon,33.7 µM
same,TGI,U251 CNS,28.8 µM
same,TGI,UACC-257 melanoma,31.2 µM
same,TGI,UACC-62 melanoma,24 µM
same,TGI,UO-31 renal,28.8 µM
same,TGI,XF 498 CNS,29.4 µM
c1ccc2cc3c(cc2c1)OP1(Oc2cccc4cccnc24)(O3)Oc2cc3ccccc3cc2O1,TGI,A498 renal,64.3 µM
same,TGI,A549 NSCLC,> 100 µM
same,TGI,CAKI-1 renal,20.6 µM
same,TGI,CCRF-CEM leukemia,> 100 µM
same,TGI,COLO 205 colon,> 100 µM
same,TGI,DLD-1 colon,> 100 µM
same,TGI,DMS 114 small cell lung,> 23 µM
same,TGI,DMS 273 small cell lung,12.4 µM
same,TGI,EKVX NSCLC,> 57.3 µM
same,TGI,HCC-2998 colon,27.2 µM
same,TGI,HCT-116 colon,> 100 µM
same,TGI,HCT-15 colon,> 100 µM
same,TGI,HL-60(TB) leukemia,5.78 µM
same,TGI,HOP-18 NSCLC,56.3 µM
same,TGI,HOP-62 NSCLC,> 73.3 µM
same,TGI,HOP-92 NSCLC,76.3 µM
same,TGI,HT29 colon,12.6 µM
same,TGI,IGROV1 ovarian,> 100 µM
same,TGI,K-562 leukemia,> 40.3 µM
same,TGI,KM12 colon,21.8 µM
same,TGI,KM20L2 colon,20.3 µM
same,TGI,LOX IMVI melanoma,22.5 µM
same,TGI,M19-MEL melanoma,38.1 µM
same,TGI,MALME-3M melanoma,> 76.8 µM
same,TGI,MCF7 breast,> 100 µM
same,TGI,NCI-H226 lung,44.5 µM
same,TGI,NCI-H23 lung,16.9 µM
same,TGI,NCI-H460 lung,12.3 µM
same,TGI,NCI-H522 lung,35.4 µM
same,TGI,NCI/ADR-RES ovarian,19.2 µM
same,TGI,OVCAR-3 ovarian,5.45 µM
same,TGI,OVCAR-4 ovarian,11.8 µM
same,TGI,OVCAR-5 ovarian,45.6 µM
same,TGI,OVCAR-8 ovarian,> 57.1 µM
same,TGI,P388 leukemia,4.57 µM
same,TGI,P388/ADR leukemia,6.73 µM
same,TGI,RXF 393 renal,> 100 µM
same,TGI,SF-268 CNS,> 100 µM
same,TGI,SF-295 CNS,> 58.9 µM
same,TGI,SF-539 CNS,49.2 µM
same,TGI,SK-MEL-2 melanoma,79.6 µM
same,TGI,SK-MEL-28 melanoma,> 100 µM
same,TGI,SK-MEL-5 melanoma,14.8 µM
same,TGI,SK-OV-3 ovarian,> 96.6 µM
same,TGI,SN12C renal,> 100 µM
same,TGI,SN12K1 renal,20.5 µM
same,TGI,SNB-19 CNS,> 100 µM
same,TGI,SNB-75 CNS,92.1 µM
same,TGI,SNB-78 CNS,> 100 µM
same,TGI,SW-620 colon,> 50.2 µM
same,TGI,U251 CNS,> 100 µM
same,TGI,UACC-257 melanoma,8.94 µM
same,TGI,UACC-62 melanoma,9.39 µM
same,TGI,UO-31 renal,20.1 µM
same,TGI,XF 498 CNS,9.98 µM
